The text below walks through data of patent EP4782448A1, “SUBSTITUTED PYRIDOTRIAZOLE COMPOUND, AND PREPARATION METHOD THEREFOR AND USE THEREOF” (Origiant Pharmaceutical Co., Ltd., priority 2023, dated 2025).

In this experiment the test system is HT-29 cells. Description: In vitro assay for protection of HT-29 cells from necroptosis (TNFα/Smac mimetic/Z-VAD-FMK induction, CCK8 readout). It is filed as cell-based. Particulars: TNFα/Smac mimetic/Z-VAD-FMK for 24 h; inhibition of necroptosis; read-out: HT-29 (EC50).

A value given as a limit tells only on which side of the number the result lay.

For the compound `C[C@H](NC(=O)c1cn(C)c2ccc(-c3ccn4nc(NC(=O)CN5CCOCC5)nc4c3)cc12)C(C)(C)C` [Compound 90], the EC50 is 1000 to 10000 nM.

For the compound `C[C@H](NC(=O)c1cn(C)c2ccc(-c3ccn4nc(NC(=O)c5cnn(C)c5)nc4c3)cc12)C(C)(C)C` [Compound 91], the EC50 is 1000 to 10000 nM.

With `C[C@H](NC(=O)c1cn(C)c2ccc(-c3ccn4nc(NC(=O)C5CC5F)nc4c3)cc12)C(C)(C)C` (stereo partly drawn) [Compound 92], the EC50 lay within 100 to 1000 nM.

As to `C[C@H](NC(=O)c1cn(C)c2ccc(-c3ccn4nc(NC(=O)C5CC5)nc4c3)cc12)C(C)(C)C` [Compound 93], the EC50 lay within 100 to 1000 nM.

As to `Cn1cc(C(=O)N[C@@H](CF)c2ccc(F)cc2)c2cc(-c3ccn4nc(NC(=O)CCl)nc4c3)ccc21` [Compound 94], the EC50 is less than 1 nM.

Regarding `CN1CCN(C(=O)Nc2nc3cc(-c4ccc5c(c4)c(C(=O)N[C@@H](CF)c4ccc(F)cc4)cn5C)ccn3n2)CC1` [Compound 95], the EC50 was less than 1 nM.

With `Cn1cc(C(=O)N[C@@H](CF)c2ccc(F)cc2)c2cc(-c3ccn4nc(NC(=O)CN5CCCCC5)nc4c3)ccc21` [Compound 96], the EC50 was less than 1 nM.

Take `COCC(=O)Nc1nc2cc(-c3ccc4c(c3)c(C(=O)N[C@@H](CF)c3ccc(F)cc3)cn4C)ccn2n1` [Compound 97]: the EC50 is less than 1 nM.

`CO[C@@H](C)C(=O)Nc1nc2cc(-c3ccc4c(c3)c(C(=O)N[C@@H](CF)c3ccc(F)cc3)cn4C)ccn2n1` [Compound 98]: the EC50 was less than 1 nM.

As for `CC(C)Nc1nc2cc(-c3ccc4c(c3)c(C(=O)N[C@@H](CF)c3ccc(F)cc3)cn4C)ccn2n1` [Compound 99], the EC50 was less than 1 nM.

Turning to `CN1CC[C@@H](C(=O)Nc2nc3cc(-c4ccc5c(c4)c(C(=O)N[C@@H](CF)c4ccc(F)cc4)cn5C)ccn3n2)C1` [Compound 100], the EC50 is less than 1 nM.

As to `CN(C)CC(=O)Nc1nc2cc(-c3ccc4c(c3)c(C(=O)N[C@@H](CF)c3ccc(F)cc3)cn4C)ccn2n1` [Compound 101], the EC50 was less than 1 nM.

For `Cn1cc(C(=O)N[C@@H](CF)c2ccc(F)cc2)c2cc(-c3ccn4nc(NC(=O)C#N)nc4c3)ccc21` [Compound 102], the EC50 is less than 1 nM.

On to `Cn1cc(C(=O)N[C@@H](CF)c2ccc(F)cc2)c2cc(-c3ccn4nc(NC(=O)N5CCOCC5)nc4c3)ccc21` [Compound 103], for which the EC50 is less than 1 nM.

As to `Cn1cc(C(=O)N[C@@H](CF)c2ccc(F)cc2)c2cc(-c3ccn4nc(NC(=O)[C@H]5CCCO5)nc4c3)ccc21` [Compound 104], the EC50 fell in the range of 1000 to 10000 nM.

Take `Cn1cc(C(=O)N[C@@H](CF)c2ccc(F)cc2)c2cc(-c3ccn4nc(NC(=O)C5(C)CCC5)nc4c3)ccc21` [Compound 105]: the EC50 was 10 to 100 nM.

In the case of `C[C@H](NC(=O)c1cn(C)c2ccc(-c3ccn4nc(NC5CCOC5)nc4c3)cc12)c1ccc(F)cc1` (stereo partly drawn) [Compound 107], the EC50 is less than 1 nM.

In the case of `Cn1cc(C(=O)N[C@@H](CF)c2ccc(F)cc2)c2cc(-c3ccn4nc(NCC5CC5)nc4c3)ccc21` [Compound 108], the 50% effective concentration (EC50) is less than 1 nM.

As to `Cn1cc(C(=O)N[C@@H](CF)c2ccc(F)cc2)c2cc(-c3ccn4nc(NC(=O)C5CCOC5)nc4c3)ccc21` (stereo partly drawn) [Compound 109], the EC50 fell in the range of 1 to 10 nM.

For `Cn1cc(C(=O)N[C@@H](CF)c2ccc(F)cc2)c2cc(-c3ccn4nc(NC(=O)C5CC5(F)F)nc4c3)ccc21` (stereo partly drawn) [Compound 110], the half-maximal effective concentration (EC50) is less than 1 nM.

Take `Cn1cc(C(=O)Nc2nc3cc(-c4ccc5c(c4)c(C(=O)N[C@@H](CF)c4ccc(F)cc4)cn5C)ccn3n2)cn1` [Compound 111]: the EC50 fell in the range of 1 to 10 nM.

As for `COC(C)C(=O)Nc1nc2cc(-c3ccc4c(c3)c(C(=O)N[C@@H](CF)c3ccc(F)cc3)cn4C)ccn2n1` (stereo partly drawn) [Compound 112], the EC50 was less than 1 nM.

In the case of `Cn1cc(C(=O)N[C@@H](CF)c2ccc(F)cc2)c2cc(-c3ccn4nc(NC(=O)C5CC5F)nc4c3)ccc21` (stereo partly drawn) [Compound 113], the EC50 was 1 to 10 nM.

`Cn1cc(C(=O)N[C@@H](CF)c2ccc(F)cc2)c2cc(-c3ccn4nc(NC(=O)C5CC5)nc4c3)ccc21` [Compound 114]: the EC50 is less than 1 nM.

On to `C[C@H](NC(=O)c1cn(C)c2ccc(-c3ccn4nc(NC(=O)c5ccnc(F)c5)nc4c3)cc12)c1ccc(F)cc1` [Compound 115], for which the EC50 is less than 1 nM.

For the compound `C[C@H](NC(=O)c1cn(C)c2ccc(-c3ccn4nc(NC(=O)N5CCOCC5)nc4c3)cc12)c1ccc(F)cc1` [Compound 116], the EC50 was less than 1 nM.

For the compound `C[C@H](NC(=O)c1cn(C)c2ccc(-c3ccn4nc(NC(=O)[C@H]5CCCO5)nc4c3)cc12)c1ccc(F)cc1` [Compound 117], the EC50 was less than 1 nM.

For `C[C@H](NC(=O)c1cn(C)c2ccc(-c3ccn4nc(NC(=O)N5CCOCC5)nc4c3)cc12)c1cccc(F)c1` [Compound 118], the EC50 is less than 1 nM.

Regarding `C[C@H](NC(=O)c1cn(C)c2ccc(-c3ccn4nc(NC(=O)[C@H]5CCCO5)nc4c3)cc12)c1cccc(F)c1` [Compound 119], the EC50 is less than 1 nM.

Turning to `C[C@H](NC(=O)c1cn(C)c2ccc(-c3ccn4nc(NC(=O)c5cnn(C)c5)nc4c3)cc12)c1cccc(F)c1` [Compound 120], the EC50 is less than 1 nM.

With `CN(C)CC(=O)Nc1nc2cc(-c3ccc4c(c3)c(C(=O)N[C@H]3CCc5ccc(F)cc53)cn4C)ccn2n1` [Compound 123], the 50% effective concentration (EC50) is 1 to 10 nM.

Consider `CC(=O)Nc1nc2cc(-c3ccc4c(c3)c(C(=O)N[C@@H]3C[C@H]3c3ccc(F)c(F)c3)cn4C)ccn2n1` [Compound 125], for which the EC50 lay within 1000 to 10000 nM.

Regarding `CC(=O)Nc1nc2cc(-c3ccc4c(c3)c(C(=O)N[C@H]3CCc5cc(C#N)ccc53)cn4C)ccn2n1` [Compound 132], the EC50 lay in the range of 100 to 1000 nM.

`Cn1cc(C(=O)N[C@H]2CCCc3cc(F)ccc32)c2cc(-c3ccn4nc(NC(=O)[C@H]5CCCO5)nc4c3)ccc21` [Compound 137]: the EC50 lay in the range of 10 to 100 nM.

`Cn1cc(C(=O)N[C@H]2CCCc3cc(F)ccc32)c2cc(-c3ccn4nc(NC(=O)[C@@H]5CCCO5)nc4c3)ccc21` [Compound 139]: the EC50 was 1 to 10 nM.

Take `Cn1cc(C(=O)Nc2nc3cc(-c4ccc5c(c4)c(C(=O)N[C@H]4CCCc6cc(F)ccc64)cn5C)ccn3n2)cn1` [Compound 141]: the EC50 was 1 to 10 nM.

For `Cn1cc(C(=O)N[C@H]2CCCc3cc(F)ccc32)c2cc(-c3ccn4nc(NC(=O)CC#N)nc4c3)ccc21` [Compound 142], the EC50 was in the range of 10 to 100 nM.

Turning to `Cn1cc(C(=O)Nc2nc3cc(-c4ccc5c(c4)c(C(=O)N[C@H]4CCCc6ccc(F)cc64)cn5C)ccn3n2)cn1` [Compound 143], the EC50 lay within 1 to 10 nM.

As to `CC(=O)Nc1nc2cc(-c3ccc4c(c3)c(C(=O)N[C@H]3CCCc5ccc(F)cc53)cn4C)ccn2n1` [Compound 145], the EC50 lay within 1 to 10 nM.

On to `Cn1cc(C(=O)N[C@H]2CCCc3ccc(F)cc32)c2cc(-c3ccn4nc(NC(=O)[C@H]5CCCO5)nc4c3)ccc21` [Compound 146], for which the 50% effective concentration (EC50) is 10 to 100 nM.

As to `Cn1cc(C(=O)NC2(c3ccc(F)cc3)COC2)c2cc(-c3ccn4nc(NC(=O)C5CC5)nc4c3)ccc21` [Compound 148], the EC50 is 10 to 100 nM.

On to `Cn1cc(C(=O)Nc2nc3cc(-c4ccc5c(c4)c(C(=O)N4CCOC[C@@H]4c4ccc(F)cc4)cn5C)ccn3n2)cn1` [Compound 149], for which the EC50 was less than 1 nM.

On to `Cn1cc(C(=O)N2CCOC[C@@H]2c2ccc(F)cc2)c2cc(-c3ccn4nc(NC(=O)C5CC5)nc4c3)ccc21` [Compound 151], for which the concentration for a half-maximal effect (EC50) is less than 1 nM.

`Cn1cc(C(=O)N2CCC[C@H]2c2ccc(F)cc2)c2cc(-c3ccn4nc(NC(=O)N5CCOCC5)nc4c3)ccc21` [Compound 153]: the EC50 is less than 1 nM.

With `Cn1cc(C(=O)N2CCC[C@H]2c2ccc(F)cc2)c2cc(-c3ccn4nc(NC(=O)C5CCCO5)nc4c3)ccc21` (stereo partly drawn) [Compound 154], the EC50 is less than 1 nM.

On to `Cn1cc(C(=O)Nc2nc3cc(-c4ccc5c(c4)c(C(=O)N[C@@H](CF)c4cccc(F)c4)cn5C)ccn3n2)cn1` [Compound 155], for which the half-maximal effective concentration (EC50) is less than 1 nM.

With `Cn1cc(C(=O)N2CC(F)(F)CC2c2ccc(F)cc2)c2cc(-c3ccn4nc(NC(=O)C5CC5)nc4c3)ccc21` (stereo not drawn) [Compound 158], the concentration for a half-maximal effect (EC50) lay within 1000 to 10000 nM.

On to `Cn1cc(C(=O)N2CC(F)(F)CC2c2ccc(F)cc2)c2cc(-c3ccn4nc(NC(=O)C5CCOC5)nc4c3)ccc21` (stereo not drawn) [Compound 159], for which the EC50 is less than 1 nM.

Turning to `Cn1cc(C(=O)N2CC(F)(F)CC2c2ccc(F)cc2)c2cc(-c3ccn4nc(NC(=O)N5CCOCC5)nc4c3)ccc21` (stereo not drawn) [Compound 160], the EC50 was less than 1 nM.

For `Cn1cc(C(=O)N[C@H](c2ccc(F)cc2)C(F)F)c2cc(-c3ccn4nc(NC(=O)CN5CCCCC5)nc4c3)ccc21` [Compound 163], the 50% effective concentration (EC50) was less than 1 nM.

For the compound `Cn1cc(C(=O)N[C@H](c2ccc(F)cc2)C(F)F)c2cc(-c3ccn4nc(NC(=O)CC#N)nc4c3)ccc21` [Compound 164], the EC50 was less than 1 nM.

Consider `CO[C@@H](C)C(=O)Nc1nc2cc(-c3ccc4c(c3)c(C(=O)N[C@H](c3ccc(F)cc3)C(F)F)cn4C)ccn2n1` [Compound 165], for which the EC50 was less than 1 nM.

With `COCC(=O)Nc1nc2cc(-c3ccc4c(c3)c(C(=O)N[C@H](c3ccc(F)cc3)C(F)F)cn4C)ccn2n1` [Compound 166], the EC50 is less than 1 nM.

As for `CN(C)CC(=O)Nc1nc2cc(-c3ccc4c(c3)c(C(=O)N[C@H](c3ccc(F)cc3)C(F)F)cn4C)ccn2n1` [Compound 167], the EC50 was less than 1 nM.

Turning to `CN1CCC(C(=O)Nc2nc3cc(-c4ccc5c(c4)c(C(=O)N[C@H](c4ccc(F)cc4)C(F)F)cn5C)ccn3n2)C1` (stereo partly drawn) [Compound 168], the EC50 is less than 1 nM.

In the case of `Cn1cc(C(=O)N2N=CCC2c2ccc(F)cc2)c2cc(-c3ccn4nc(NC(=O)C5CCOC5)nc4c3)ccc21` (stereo not drawn) [Compound 169], the EC50 was less than 1 nM.

Turning to `Cn1cc(C(=O)N2N=CCC2c2ccc(F)cc2)c2cc(-c3ccn4nc(NC(=O)C5CC5)nc4c3)ccc21` (stereo not drawn) [Compound 170], the EC50 is less than 1 nM.

Take `Cn1cc(C(=O)Nc2nc3cc(-c4ccc5c(c4)c(C(=O)N4N=CCC4c4ccc(F)cc4)cn5C)ccn3n2)cn1` (stereo not drawn) [Compound 171]: the EC50 lay in the range of 1 to 10 nM.

As for `Cn1cc(C(=O)N2N=CCC2c2ccc(F)cc2)c2cc(-c3ccn4nc(NC(=O)N5CCOCC5)nc4c3)ccc21` (stereo not drawn) [Compound 172], the EC50 was 1 to 10 nM.

For `CC(C(=O)Nc1cn(C)c2ccc(-c3ccn4nc(NC(=O)C5CC5)nc4c3)cc12)c1ccc(F)cc1` (stereo not drawn) [Compound 177], the EC50 lay in the range of 10 to 100 nM.

A word on the EC50: it is the concentration at which the effect is half-maximal.
